Results published in patent US4032659A (priority 1975, dated 1977).
Structures can show the parent of a compound that is named as a salt. Where two headings read alike, the source gives them in different places.

Assays:
[1] = tested on: Influenza Ann Arbor virus; test: Chemoprophylaxis of Influenza Ann Arbor (A1) virus infection in mice; assay type: in vivo, mouse
Influenza PR 8 virus = test: Chemoprophylaxis of Influenza PR 8 virus infection in mice; assay type: in vivo, mouse; conditions: oral
virus infections = test: Antiviral screening program, several viruses; conditions: mouse, in vivo
Herpes virus = assay type: in vivo, mouse; conditions: oral
[2] = subcutaneous, total dose 500 μg
[3] = subcutaneous, total dose .00005 μg
[4] = subcutaneous, total dose .0005 μg
[5] = subcutaneous, total dose .005 μg
[6] = subcutaneous, total dose .05 μg

Structure (SMILES): NN [hydrazine, hydrate]
- No. animals surviving after 5 days ([1]; oral, total dose 5 μg): 4
- Survivors ([1]; oral, total dose 5 μg): 0
- No. animals surviving after 5 days ([1]; oral, total dose 50 μg): 4
- Survivors ([1]; oral, total dose 50 μg): 0
- No. animals surviving after 5 days ([1]; oral, total dose 500 μg): 5
- Survivors ([1]; oral, total dose 500 μg): 0
- No. animals surviving after 5 days ([1]; oral, total dose .00005 μg): 6
- Survivors ([1]; oral, total dose .00005 μg): 0
- No. animals surviving after 5 days ([1]; oral, total dose .0005 μg): 6
- Survivors ([1]; oral, total dose .0005 μg): 0
- No. animals surviving after 5 days ([1]; oral, total dose .005 μg): 3
- Survivors ([1]; oral, total dose .005 μg): 0
- No. animals surviving after 5 days ([1]; oral, total dose .05 μg): 3
- Survivors ([1]; oral, total dose .05 μg): 1
- No. animals surviving after 5 days ([1]; oral, total dose .5 μg): 6
- Survivors ([1]; oral, total dose .5 μg): 0
- No. animals surviving after 5 days ([1]; subcutaneous, total dose 5 μg): 6
- No. animals surviving after 7 days ([1]; subcutaneous, total dose 5 μg): 6
- Survivors ([1]; subcutaneous, total dose 5 μg, hydrate): 3
- No. animals surviving after 5 days ([1]; subcutaneous, total dose 50 μg): 4
- No. animals surviving after 7 days ([1]; subcutaneous, total dose 50 μg): 7
- No. animals surviving after 5 days [1, 2]: 3
- No. animals surviving after 7 days [1, 2]: 6
- Survivors [1, 2]: 0
- No. animals surviving after 5 days [1, 3]: 1
- No. animals surviving after 7 days [1, 3]: 1
- Survivors [1, 3]: 0
- No. animals surviving after 5 days [1, 4]: 7
- No. animals surviving after 7 days [1, 4]: 5
- No. animals surviving after 5 days [1, 5]: 4
- No. animals surviving after 7 days [1, 5]: 3
- No. animals surviving after 5 days [1, 6]: 6
- No. animals surviving after 7 days [1, 6]: 4
- No. animals surviving after 5 days ([1]; subcutaneous, total dose .5 μg): 5
- No. animals surviving after 7 days ([1]; subcutaneous, total dose .5 μg): 7
- No. animals surviving after 10 days (Influenza PR 8 virus; total dose 5 μg): 1
- Survivors (Influenza PR 8 virus; total dose 5 μg): 0
- No. animals surviving after 10 days (Influenza PR 8 virus; total dose 50 μg): 1
- Survivors (Influenza PR 8 virus; total dose 50 μg): 0
- No. animals surviving after 7 days (Influenza PR 8 virus; total dose .000005 μg): 4
- No. animals surviving after 7 days (Influenza PR 8 virus; total dose .00005 μg): 0
- No. animals surviving when 18/20 of controls are dead (Influenza PR 8 virus; total dose .00005 μg): 4
- No. animals surviving after 10 days (Influenza PR 8 virus; total dose .0005 μg): 1
- No. animals surviving when 18/20 of controls are dead (Influenza PR 8 virus; total dose .0005 μg): 3
- Survivors (Influenza PR 8 virus; total dose .0005 μg, hydrate): 1
- No. animals surviving after 7 days (Influenza PR 8 virus; total dose .005 μg): 5
- No. animals surviving after 10 days (Influenza PR 8 virus; total dose .005 μg): 3
- No. animals surviving when 18/20 of controls are dead (Influenza PR 8 virus; total dose .005 μg): 1
- No. animals surviving after 10 days (Influenza PR 8 virus; total dose .05 μg): 0
- No. animals surviving when 18/20 of controls are dead (Influenza PR 8 virus; total dose .05 μg): 1
- No. animals surviving after 10 days (Influenza PR 8 virus; total dose .5 μg): 1
- No. animals surviving when 18/20 of controls are dead (Influenza PR 8 virus; total dose .5 μg): 1
- Survivors (Influenza PR 8 virus; total dose .5 μg): 1
- activity (in words) (virus infections): active on Influenza PR 8, Vaccinia in the mouse tail, Herpes in eggs, Herpes in mice, and Influenza Ann Arbor

Structure (SMILES): NNC(N)=O [semicarbazide, hydrochloride]
- No. animals surviving when 19/20 controls are dead (Herpes virus; total dose 5 μg): 4
- No. animals surviving when 19/20 controls are dead (Herpes virus; total dose .05 μg): 4
- activity (in words) (virus infections): effective against Influenza PR 8 virus, Vaccinia virus in the mouse tail, Herpes virus in eggs, Herpes virus in mice, Neurovaccinia, and Influenza Ann Arbor virus
